Measurements as given in article PMC10646112, “Mechanistic insights into glycoside 3-oxidases involved in C-glycoside metabolism in soil microorganisms” (Nature Communications, 2023).

What was measured:
[1] = target: T1, PsG3Ox (Pseudarthrobacter siccitolerans, UniProt A0A024H8G7); assay: inhibition of D-Glc oxidation, steady-state kinetics (Lineweaver-Burk, secondary plot of slopes); type: biochemical; set-up: gene ARTSIC4J27_4061
[2] = target: T1, PsG3Ox; assay: tryptophan fluorescence quenching titration of apo-enzyme; crystal structure; type: biochemical; set-up: gene ARTSIC4J27_4061; Apo-PsG3Ox

T1 sequence (A0A024H8G7 1-519): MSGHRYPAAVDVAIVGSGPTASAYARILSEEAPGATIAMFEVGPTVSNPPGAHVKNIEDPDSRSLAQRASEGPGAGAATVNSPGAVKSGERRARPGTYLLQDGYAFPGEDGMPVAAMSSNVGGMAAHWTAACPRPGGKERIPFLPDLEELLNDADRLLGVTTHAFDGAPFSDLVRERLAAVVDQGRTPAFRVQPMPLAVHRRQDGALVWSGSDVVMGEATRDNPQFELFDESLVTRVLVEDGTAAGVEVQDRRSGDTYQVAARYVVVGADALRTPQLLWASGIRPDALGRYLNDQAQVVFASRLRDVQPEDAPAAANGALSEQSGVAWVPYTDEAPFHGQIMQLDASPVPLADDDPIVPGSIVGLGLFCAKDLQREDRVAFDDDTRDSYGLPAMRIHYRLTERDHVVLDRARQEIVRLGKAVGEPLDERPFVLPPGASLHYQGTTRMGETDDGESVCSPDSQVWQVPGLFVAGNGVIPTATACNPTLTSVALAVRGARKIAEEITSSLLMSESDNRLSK

C[C@@H]1O[C@@H](OC[C@H]2O[C@@H](Oc3c(-c4ccc(O)c(O)c4)oc4cc(O)cc(O)c4c3=O)[C@H](O)[C@@H](O)[C@@H]2O)[C@H](O)[C@H](O)[C@H]1O [rutin]
Ki [1]: 100 µM

Cc1cc2nc3c(=O)[nH]c(=O)nc-3n(C[C@H](O)[C@H](O)[C@H](O)COP(=O)(O)OP(=O)(O)OC[C@H]3O[C@@H](n4cnc5c(N)ncnc54)[C@H](O)[C@@H]3O)c2cc1C [FAD]
Kd [2]: 0.2 µM
